Experimental findings from the supplement of paper PMC12698765 are described below.

Molecules are shown by their SMILES. Where a name gives a salt, the structure may show the parent alone. ± gives the standard deviation of the averaged measurements.

The subject of experiment [1] is 409B2 hiPSC (iCRISPR Cas9, FRMD7 editing). Nature of the experiment: cell survival relative to solvent control (fold (ratio to mock)); higher = more surviving cells. The method, then: (§1)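 Subset screen of 55 drugs tested at 5 concentrations around the effective screening dose, in 409B2 iCRISPR Cas9 hiPSCs editing FRMD7 with a ssDNA donor. Drugs were applied for 24 h. Viability was read by resazurin and editing outcomes by amplicon sequencing (HDR, NHEJ <2 bp microhomology, MMEJ ≥2 bp microhomology). Values are relative to solvent mock controls; two biological replicates.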

Experiment [2] has the same test system. In words: NHEJ-attributed indel frequency relative to solvent control (fold (ratio to mock)); higher = more NHEJ outcomes. The protocol:
as §1

For experiment [3] the test system is unchanged. In words: MMEJ-attributed deletion frequency relative to solvent control (fold (ratio to mock)); higher = more MMEJ outcomes. The method, then: as §1
Experiment [4] shares this test system. In words: HDR (precise edit) frequency relative to solvent control (fold (ratio to mock)); higher = more homology-directed repair outcomes. The protocol:
as §1

With `CC1(C)S[C@@H]2[C@H](NC(=O)COc3ccccc3)C(=O)N2[C@H]1C(=O)O` [Penicillin V potassium salt] (in DMSO), the cell survival in experiment [1] (200 nM) is 0.876; in experiment [1] (500 nM), 1.15; in experiment [1] (1000 nM) it was 0.976; in experiment [1] (2000 nM) it was 0.894; in experiment [1] (5000 nM), 0.923. Further, the NHEJ-attributed indel frequency in experiment [2] (200 nM) turned out to be 1.006 ± 0.0015; in experiment [2] (500 nM), 1.012 ± 0.0034; in experiment [2] (1000 nM) it was 0.9903 ± 0.0037; in experiment [2] (2000 nM) it was 1 ± 0.021; in experiment [2] (5000 nM), 1.01 ± 0.013. Further, the MMEJ-attributed deletion frequency in experiment [3] (200 nM) amounted to 1.02 ± 0.097; in experiment [3] (500 nM), 0.994 ± 0.04; in experiment [3] (1000 nM), 0.963 ± 0.15; in experiment [3] (2000 nM) it was 1.1 ± 0.047; in experiment [3] (5000 nM) it was 1.05 ± 0.11. For the same molecule, the HDR in experiment [4] (200 nM) stood at 0.992 ± 0.094; in experiment [4] (500 nM) it was 1.05 ± 0.012; in experiment [4] (1000 nM), 0.992 ± 0.02; in experiment [4] (2000 nM), 1.01 ± 0.062; in experiment [4] (5000 nM), 0.964 ± 0.11.
Regarding `C=CC[C@]1(O)CC[C@H]2[C@@H]3CCC4=CC(=O)CCC4=C3C=C[C@@]21C` [Altrenogest] (in DMSO), the cell survival in experiment [1] (20 nM) turned out to be 1.01; in experiment [1] (50 nM), 1.11; in experiment [1] (100 nM), 0.87; in experiment [1] (200 nM), 1.05; in experiment [1] (500 nM) it was 1.06. Moreover, the NHEJ-attributed indel frequency is 0.9775 ± 0.0069 in experiment [2] (20 nM); 1.007 ± 0.0051 in experiment [2] (50 nM); 1.007 ± 0.0033 in experiment [2] (100 nM); 1 ± 0.038 in experiment [2] (200 nM); 1.02 ± 0.036 in experiment [2] (500 nM). Moreover, the MMEJ-attributed deletion frequency stood at 1 ± 0.085 in experiment [3] (20 nM); 0.963 ± 0.12 in experiment [3] (50 nM); 1.02 ± 0.12 in experiment [3] (100 nM); 0.888 ± 0.14 in experiment [3] (200 nM); 0.98 ± 0.18 in experiment [3] (500 nM). For the same molecule, the HDR in experiment [4] (20 nM) amounted to 1.08 ± 0.065; in experiment [4] (50 nM), 1.08 ± 0.06; in experiment [4] (100 nM), 1.024 ± 0.0079; in experiment [4] (200 nM), 1.048 ± 0.0023; in experiment [4] (500 nM) it was 1.01 ± 0.088.
Consider `CCN1CCN(Cc2ccc(Nc3ncc(F)c(-c4cc(F)c5nc(C)n(C(C)C)c5c4)n3)nc2)CC1` (in EtOH), for which the cell survival is 0.514 in experiment [1] (2000 nM); -0.00651 in experiment [1] (5000 nM); -0.00445 in experiment [1] (10000 nM); -0.00662 in experiment [1] (20000 nM); -0.00233 in experiment [1] (50000 nM). In addition, the NHEJ-attributed indel frequency stood at 0.504 ± 0.61 in experiment [2] (2000 nM); 0.11 ± 0.075 in experiment [2] (5000 nM); 0.157 ± 0.018 in experiment [2] (10000 nM); 0.0938 ± 0.058 in experiment [2] (20000 nM); 0.0987 ± 0.029 in experiment [2] (50000 nM). Also, the MMEJ-attributed deletion frequency was 0.565 ± 0.58 in experiment [3] (2000 nM); 0.159 ± 0.15 in experiment [3] (5000 nM); 0.229 ± 0.044 in experiment [3] (10000 nM); 0.109 ± 0.062 in experiment [3] (20000 nM); 0.0743 ± 0.0014 in experiment [3] (50000 nM). Moreover, the HDR in experiment [4] (2000 nM) came out at 0.589 ± 0.76; in experiment [4] (5000 nM) it was 0.0594 ± 0.017; in experiment [4] (10000 nM), 0.0558 ± 0.0014; in experiment [4] (20000 nM), 0.0719 ± 0.015; in experiment [4] (50000 nM), 0.0788 ± 0.0049.
Take `CC[N+](CC)(CC)CC` [Tetraethylammonium chloride] (in EtOH): the cell survival in experiment [1] (0.2 nM) was 0.933; in experiment [1] (0.5 nM), 1.09; in experiment [1] (1 nM), 0.954; in experiment [1] (2 nM) it was 0.979; in experiment [1] (5 nM) it was 1.03. The NHEJ-attributed indel frequency in experiment [2] (0.2 nM) stood at 0.99 ± 0.026; in experiment [2] (0.5 nM) it was 0.996 ± 0.018; in experiment [2] (1 nM) it was 0.99607 ± 0.00072; in experiment [2] (2 nM), 1.007 ± 0.01; in experiment [2] (5 nM), 0.9965 ± 0.0079. Moreover, the MMEJ-attributed deletion frequency in experiment [3] (0.2 nM) amounted to 1.05 ± 0.022; in experiment [3] (0.5 nM), 1.03 ± 0.11; in experiment [3] (1 nM), 0.964 ± 0.1; in experiment [3] (2 nM) it was 1.053 ± 0.0031; in experiment [3] (5 nM) it was 0.9894 ± 0.0011. Besides, the HDR in experiment [4] (0.2 nM) came to 1.11 ± 0.15; in experiment [4] (0.5 nM), 1.09 ± 0.19; in experiment [4] (1 nM) it was 1.02 ± 0.019; in experiment [4] (2 nM) it was 0.961 ± 0.11; in experiment [4] (5 nM), 0.922 ± 0.038.
`Cc1ccc(C(=O)N(CCCN)[C@@H](c2nc3cc(Cl)ccc3c(=O)n2Cc2ccccc2)C(C)C)cc1` (in DMSO): the cell survival in experiment [1] (0.2 nM) is 1.07; in experiment [1] (0.5 nM), 1.34; in experiment [1] (1 nM) it was 1.15; in experiment [1] (2 nM), 1.2; in experiment [1] (5 nM) it was 0.682. Besides, the NHEJ-attributed indel frequency in experiment [2] (0.2 nM) was determined as 0.957 ± 0.046; in experiment [2] (0.5 nM) it was 0.989 ± 0.019; in experiment [2] (1 nM) it was 0.9925 ± 0.0038; in experiment [2] (2 nM), 1.012 ± 0.0086; in experiment [2] (5 nM) it was 1.07 ± 0.041. Further, the MMEJ-attributed deletion frequency in experiment [3] (0.2 nM) is 1.01 ± 0.086; in experiment [3] (0.5 nM), 0.901 ± 0.032; in experiment [3] (1 nM) it was 1.01 ± 0.076; in experiment [3] (2 nM), 0.864 ± 0.08; in experiment [3] (5 nM), 0.961 ± 0.13. Further, the HDR in experiment [4] (0.2 nM) worked out at 1.1 ± 0.075; in experiment [4] (0.5 nM), 1.0454 ± 2.1e-05; in experiment [4] (1 nM) it was 1.08 ± 0.032; in experiment [4] (2 nM), 1.03 ± 0.032; in experiment [4] (5 nM) it was 1.18 ± 0.095.
Take `OC[C@H]1O[C@@H](c2ccc(F)c(Cc3cc4ccccc4s3)c2)[C@H](O)[C@@H](O)[C@@H]1O` [Ipragliflozin] (in DMSO): the cell survival in experiment [1] (20 nM) was determined as 0.951; in experiment [1] (50 nM), 1.11; in experiment [1] (100 nM), 0.915; in experiment [1] (200 nM), 1.12; in experiment [1] (500 nM), 0.95. Also, the NHEJ-attributed indel frequency was 1 ± 0.038 in experiment [2] (20 nM); 0.9974 ± 0.0051 in experiment [2] (50 nM); 1.005 ± 0.0019 in experiment [2] (100 nM); 1.01 ± 0.012 in experiment [2] (200 nM); 0.995 ± 0.032 in experiment [2] (500 nM). The MMEJ-attributed deletion frequency in experiment [3] (20 nM) worked out at 0.982 ± 0.092; in experiment [3] (50 nM), 0.909 ± 0.09; in experiment [3] (100 nM) it was 0.913 ± 0.041; in experiment [3] (200 nM) it was 0.94 ± 0.11; in experiment [3] (500 nM), 1.07 ± 0.08. The HDR in experiment [4] (20 nM) came to 1.09 ± 0.029; in experiment [4] (50 nM), 1 ± 0.037; in experiment [4] (100 nM) it was 0.984 ± 0.064; in experiment [4] (200 nM), 1.02 ± 0.07; in experiment [4] (500 nM), 1.05 ± 0.067.
